Laboratory results taken from patent US20260265242A1, “FABK INHIBITOR COMPOSITIONS” (The Texas A&M University System, priority 2023, published 2026).
In brackets after ≈: the same amount, converted by molar mass.

Tested on: C. difficile strain R20291
Assay: MIC determination by broth microdilution
Format: cell-based
Settings: not given

| Compound | activity against C. difficile in MIC testing (in words) |
| --- | --- |
| O=C(NCc1nc(-c2ccc(Br)cc2)c[nH]1)Nc1nc2ccccc2s1 [Compound 6a] | inactive |

Same assay, conditions: Clostridioides difficile, R20291, 24 h, Table 1; BHI broth, 24 h anaerobic, 37° C.; read-out: R20291 MIC

| MIC [µg/mL] | Compound |
| --- | --- |
| 3.12 (≈ 5.98 µM) | O=C(NCc1nc(-c2ccc(Br)cc2)c[nH]1)Nc1ncc(Sc2ccc(Cl)cn2)s1 [Compound 5e] |
| 1.56 to 3.12 (≈ 3.19 to 6.39 µM) | O=C(NCc1nc(-c2ccc(Br)cc2)c[nH]1)Nc1ncc(Sc2ncccn2)s1 [Compound 5b] |
| > 50 | O=C(NCc1nc(-c2ccc(Br)cc2)c[nH]1)Nc1ncc(Sc2ccc3ccccc3n2)s1 [Compound 5h] |
| 1.56 (≈ 2.81 µM) | O=C(NCc1nc(-c2ccc(Br)cc2)c[nH]1)Nc1ncc(Sc2ncccc2C(F)(F)F)s1 [Compound 5g] |

Same assay, conditions: Clostridioides difficile, R20291, 24 h, Table 2; BHI broth, 24 h anaerobic, 37° C.; read-out: R20291 MIC

| MIC [µg/mL] | Compound |
| --- | --- |
| 12.5 (≈ 26.5 µM) | CCOc1ccc2nc(NC(=O)NCc3nc(-c4ccc(Br)cc4)c[nH]3)sc2c1 [Compound 6k] |
| 50 (≈ 98.6 µM) | O=C(NCc1nc(-c2ccc(Br)cc2)c[nH]1)Nc1nc2ccc(Br)cc2s1 [Compound 6g] |
| 3.12 (≈ 6.29 µM) | O=C(NCc1nc(-c2ccc(Br)cc2)c[nH]1)Nc1nc2cc(C(F)(F)F)ccc2s1 [Compound 6c] |

Same assay, conditions: Clostridioides difficile, R20291, 24 h, read-out: R20291 MIC

| Compound | MIC [µg/mL] |
| --- | --- |
| CN[C@H](CC(C)C)C(=O)N[C@H]1C(=O)N[C@@H](CC(N)=O)C(=O)N[C@H]2C(=O)N[C@H]3C(=O)N[C@H](C(=O)N[C@H](C(=O)O)c4cc(O)cc(O)c4-c4cc3ccc4O)[C@H](O)c3ccc(c(Cl)c3)Oc3cc2cc(c3O[C@@H]2O[C@H](CO)[C@@H](O)[C@H](O)[C@H]2O[C@H]2C[C@](C)(N)[C@H](O)[C@H](C)O2)Oc2ccc(cc2Cl)[C@H]1O [Vancomycin, reference compound] | 0.39 to 0.78 (≈ 0.269 to 0.538 µM) |
| O=C(NCc1nc(-c2ccc(Br)cc2)c[nH]1)Nc1ncc(Sc2nc3ccccc3s2)s1 [Compound 5i] | > 50 |
| O=C(NCc1nc(-c2ccc(Br)cc2)c[nH]1)Nc1ncc(Sc2ccccc2)s1 [Compound 5c] | 1.56 to 3.12 (≈ 3.21 to 6.41 µM) |
| O=C(NCc1nc(-c2ccc(Br)cc2)c[nH]1)Nc1ncc(Sc2ccc(Br)cc2)s1 [Compound 5d] | 25 (≈ 44.2 µM) |
| O=C(NCc1nc(-c2ccc(Br)cc2)c[nH]1)Nc1nc2ccccc2s1 [Compound 6a] | > 50 |

Same assay, conditions: Clostridioides difficile, R20291, Table 3; read-out: R20291 MIC

| MIC [µg/mL] | Compound |
| --- | --- |
| > 50 | O=C(NCc1nc2ccccc2c(=O)[nH]1)Nc1ncc(Sc2ccccn2)s1 [Compound 8c] |
| > 50 | O=C(NCc1nc(-c2ccccc2)n[nH]1)Nc1ncc(Sc2ccccn2)s1 [Compound 8a] |

Same assay, conditions: Clostridioides difficile, R20291, running text; read-out: MIC (anti-C. difficile activity)

| MIC [µg/mL] | Compound |
| --- | --- |
| 12.5 to 25 (≈ 24.4 to 48.8 µM) | O=C(NCc1nc(-c2ccc(Br)cc2)c[nH]1)Nc1nc2ccc(OC(F)(F)F)cc2s1 [Compound 6l] |
| 6.25 (≈ 13.5 µM) | O=C(NCc1nc(-c2ccc(Br)cc2)c[nH]1)Nc1nc2ccc(Cl)cc2s1 [Compound 6h] |
| 12.5 (≈ 26.9 µM) | O=C(NCc1nc(-c2ccc(Br)cc2)c[nH]1)Nc1nc2c(F)cc(F)cc2s1 [Compound 6j] |
| > 100 | CS(=O)(=O)c1ccc2nc(NC(=O)NCc3nc(-c4ccc(Br)cc4)c[nH]3)sc2c1 [Compound 6f] |
| 0.39 (≈ 0.775 µM) | S=C(NCc1nc(-c2ccc(Br)cc2)c[nH]1)Nc1ncc(Sc2ccccn2)s1 [Compound 7a] |

Same assay, conditions: Table 2; BHI broth, 24 h anaerobic, 37° C.

| R20291 MIC [µg/mL] | Compound |
| --- | --- |
| 1.56 | O=C(NCc1nc(-c2ccc(Br)cc2)c[nH]1)Nc1nc2c(C(F)(F)F)cccc2s1 [Compound 6b] |
| 12.5 | O=C(NCc1nc(-c2ccc(Br)cc2)c[nH]1)Nc1nc2c(C(F)(F)F)cccc2s1 [Compound 6e] |

| Compound | R20291 MIC [µg/mL] |
| --- | --- |
| CN[C@H](CC(C)C)C(=O)N[C@H]1C(=O)N[C@@H](CC(N)=O)C(=O)N[C@H]2C(=O)N[C@H]3C(=O)N[C@H](C(=O)N[C@H](C(=O)O)c4cc(O)cc(O)c4-c4cc3ccc4O)[C@H](O)c3ccc(c(Cl)c3)Oc3cc2cc(c3O[C@@H]2O[C@H](CO)[C@@H](O)[C@H](O)[C@H]2O[C@H]2C[C@](C)(N)[C@H](O)[C@H](C)O2)Oc2ccc(cc2Cl)[C@H]1O [Vancomycin, reference compound] | 0.39 to 0.78 |

Same assay, conditions: unit printed as g/mL

| MIC (anti-C. difficile activity) [µg/mL] | Compound |
| --- | --- |
| 3.12 (≈ 5.62 µM) | O=C(NCc1nc(-c2ccc(Br)cc2)c[nH]1)Nc1ncc(Sc2ccc(C(F)(F)F)cn2)s1 [Compound 5f] |
| 3.12 (≈ 5.98 µM) | O=C(NCc1nc(-c2ccc(Br)cc2)c[nH]1)Nc1ncc(Sc2ccc(Cl)cn2)s1 [Compound 5e] |
